In PubChem BioAssay (NCI):
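How tested: cells in 96-well plates exposed to compound for 48 hours at five concentrations. GI50 marks 50% less growth. The concentration for full growth arrest is given as TGI.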

What was measured:
Assay in all cases: NCI-60 cell line screen, 48 h
[1] = test system: HCT-15 colon
[2] = test system: SNB-19 CNS
[3] = test system: HOP-62 NSCLC
[4] = test system: LOX IMVI melanoma
[5] = test system: SK-MEL-5 melanoma
[6] = test system: U251 CNS
[7] = test system: MOLT-4 leukemia
[8] = test system: NCI-H522 lung
[9] = test system: SNB-75 CNS
[10] = test system: MALME-3M melanoma
[11] = test system: SF-268 CNS
[12] = test system: HCT-116 colon
[13] = test system: SR leukemia
[14] = test system: UACC-257 melanoma
[15] = test system: BT-549 breast
[16] = test system: IGROV1 ovarian
[17] = test system: RPMI-8226 leukemia
[18] = test system: NCI-H460 lung
[19] = test system: K-562 leukemia
[20] = test system: A549 NSCLC
[21] = test system: HCC-2998 colon
[22] = test system: OVCAR-4 ovarian
[23] = test system: TK-10 renal
[24] = test system: KM12 colon
[25] = test system: A498 renal
[26] = test system: HT29 colon
[27] = test system: OVCAR-8 ovarian
[28] = test system: RXF 393 renal
[29] = test system: OVCAR-5 ovarian
[30] = test system: SK-MEL-28 melanoma
[31] = test system: HS 578T breast
[32] = test system: M14 melanoma
[33] = test system: SN12C renal
[34] = test system: 786-0 renal
[35] = test system: CCRF-CEM leukemia
[36] = test system: DU-145 prostate
[37] = test system: NCI-H23 lung
[38] = test system: UACC-62 melanoma
[39] = test system: NCI/ADR-RES ovarian
[40] = test system: HOP-92 NSCLC
[41] = test system: MCF7 breast
[42] = test system: MDA-MB-231 breast
[43] = test system: UO-31 renal
[44] = test system: SK-OV-3 ovarian
[45] = test system: MDA-MB-435
[46] = test system: SF-539 CNS
[47] = test system: OVCAR-3 ovarian
[48] = test system: PC-3 prostate
[49] = test system: SF-295 CNS
[50] = test system: CAKI-1 renal
[51] = test system: T-47D breast
[52] = test system: ACHN renal
[53] = test system: COLO 205 colon
[54] = test system: NCI-H226 lung
[55] = test system: SW-620 colon
[56] = test system: HL-60(TB) leukemia
[57] = test system: SK-MEL-2 melanoma

O=[N+]([O-])c1cccc(C2CC(c3ccccc3)=Nc3ccccc3S2)c1 (centres undefined)
GI50 [1]: 4.84 µM
TGI [1]: 18.7 µM
GI50 [2]: 15.4 µM
TGI [2]: 44.8 µM
GI50 [3]: 37.8 µM
TGI [3]: > 100 µM
GI50 [4]: 3.02 µM
TGI [4]: 11.9 µM
GI50 [5]: 15.9 µM
TGI [5]: 29.6 µM
GI50 [6]: 8.48 µM
TGI [6]: 21.2 µM
GI50 [7]: 7.44 µM
TGI [7]: > 100 µM
GI50 [8]: 10.8 µM
TGI [8]: 23.5 µM
GI50 [9]: 9.53 µM
TGI [9]: > 100 µM
GI50 [10]: 17.9 µM
TGI [10]: 46.1 µM
GI50 [11]: 13.1 µM
TGI [11]: 26.9 µM
GI50 [12]: 2.94 µM
TGI [12]: 9 µM
GI50 [13]: 3.4 µM
TGI [13]: > 100 µM
GI50 [14]: 21.6 µM
TGI [14]: 61 µM
GI50 [15]: 13.2 µM
TGI [15]: 26.7 µM
GI50 [16]: 16.1 µM
TGI [16]: 35.6 µM
GI50 [17]: 3.41 µM
TGI [17]: 17.3 µM
GI50 [18]: 20.5 µM
TGI [18]: 48.7 µM
GI50 [19]: 3.76 µM
TGI [19]: > 100 µM
GI50 [20]: 30.6 µM
TGI [20]: > 100 µM
GI50 [21]: 16 µM
TGI [21]: 31 µM
GI50 [22]: 11.7 µM
TGI [22]: 26.4 µM
GI50 [23]: 22.1 µM
TGI [23]: 42.2 µM
GI50 [24]: 6.32 µM
TGI [24]: 19.3 µM
GI50 [25]: 14.7 µM
TGI [25]: 95.8 µM
GI50 [26]: 8.25 µM
TGI [26]: 24.3 µM
GI50 [27]: 15.5 µM
TGI [27]: 39.6 µM
GI50 [28]: 17.2 µM
TGI [28]: 36.6 µM
GI50 [29]: 13.9 µM
TGI [29]: 28.1 µM
GI50 [30]: 17.4 µM
TGI [30]: 34.2 µM
GI50 [31]: 20 µM
TGI [31]: > 100 µM
GI50 [32]: 19.2 µM
TGI [32]: 44.6 µM
GI50 [33]: 13.4 µM
TGI [33]: 26.8 µM
GI50 [34]: 17.3 µM
TGI [34]: 31.6 µM
GI50 [35]: 5.91 µM
TGI [35]: > 100 µM
GI50 [36]: 16.8 µM
TGI [36]: 34.3 µM
GI50 [37]: 17.9 µM
TGI [37]: 61.8 µM
GI50 [38]: 12.1 µM
TGI [38]: 44.1 µM
GI50 [39]: 22.1 µM
TGI [39]: > 100 µM
GI50 [40]: 14.3 µM
TGI [40]: 45.6 µM
GI50 [41]: 2.06 µM
TGI [41]: 13.3 µM
GI50 [42]: 12.9 µM
TGI [42]: 33.6 µM
GI50 [43]: 9.61 µM
TGI [43]: 21.9 µM
GI50 [44]: 34.9 µM
TGI [44]: > 100 µM
GI50 [45]: 15.7 µM
TGI [45]: 37.7 µM
GI50 [46]: 17.2 µM
TGI [46]: 31.3 µM
GI50 [47]: 13.3 µM
TGI [47]: 26.1 µM
GI50 [48]: 10.1 µM
TGI [48]: 28.7 µM
GI50 [49]: 25.1 µM
TGI [49]: 77.7 µM
GI50 [50]: 21.8 µM
TGI [50]: > 100 µM
GI50 [51]: 16.6 µM
TGI [51]: 52.6 µM
GI50 [52]: 13.9 µM
TGI [52]: 28.5 µM
GI50 [53]: 19.2 µM
TGI [53]: 41.7 µM
GI50 [54]: 72.4 µM
TGI [54]: > 100 µM
GI50 [55]: 3.03 µM
TGI [55]: 12 µM
GI50 [56]: 26.5 µM
TGI [56]: 84.7 µM
GI50 [57]: 21 µM
TGI [57]: 43.6 µM
